# Experimental data published in patent US20240217957A1, “HETEROCYCLIC COMPOUND AND USE THEREOF” (TAKEDA PHARMACEUTICAL COMPANY LIMITED, priority 2022, published 2024).
# Molecular target: T1, human OX2 receptor (Homo sapiens, UniProt O43614)
# T1 construct: expressed in transfected cells
# T1 sequence (O43614 1-444): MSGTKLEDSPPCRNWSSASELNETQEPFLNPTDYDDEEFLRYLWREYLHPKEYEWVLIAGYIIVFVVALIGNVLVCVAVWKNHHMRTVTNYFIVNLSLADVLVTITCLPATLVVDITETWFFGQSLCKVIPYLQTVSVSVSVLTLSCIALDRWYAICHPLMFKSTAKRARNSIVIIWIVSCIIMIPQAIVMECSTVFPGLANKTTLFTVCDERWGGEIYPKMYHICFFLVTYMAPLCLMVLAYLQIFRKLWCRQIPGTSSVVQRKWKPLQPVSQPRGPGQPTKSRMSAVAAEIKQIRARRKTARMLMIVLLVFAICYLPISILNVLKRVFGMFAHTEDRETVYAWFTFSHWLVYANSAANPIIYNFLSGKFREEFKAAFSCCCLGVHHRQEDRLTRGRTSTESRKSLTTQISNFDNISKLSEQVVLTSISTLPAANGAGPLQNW
# Experiment: Measurement of orexin type 2 receptor agonist activity (calcium fluorescence, Fluo-4 AM, FDSS)
# Format: cell-based
# Conditions: compound at 3 μM; CHO cells forcibly expressing human OX2 receptor; DMSO = 0%, 10 nM orexin A (human) = 100%
# Procedure: In order to obtain cell clones that stably express human orexin type 2 receptor, human orexin type 2 (residues 1-444, NCBI Reference Sequence: AK314279) was constructed in a pcDNA3.1 (+) vector (Invitrogen) to express in mammalian cells. This plasmid DNA was transfected into CHO-K1 cells by electroporation, and stable clones were obtained by limiting dilution using resistance to G418 as a selection marker.
# CHO cells in which human OX2 receptor was forcibly expressed were seeded at 10,000 cells/well into a 384-well black transparent bottom plate (BD falcon), and were incubated at 37° C., 5% CO2 for 1 day after incubation at room temperature for 30 minutes. After removing the cell plate medium, assay buffer containing calcium indicator A (HBSS (Thermo Fisher Scientific), 20 mM HEPES (Thermo Fisher Scientific), 0.1% BSA (Sigma-Aldrich), 2.5 μg/mL Fluo-4 AM (Dojin Kagaku), 0.08% Pluronic F127 (Dojin Kagaku), 1.25 mM probenecid (Dojin Kagaku)) was added at 30 μL/well. After incubation in a 5% CO2 incubator at 37° C. for 30 minutes, it was incubated at room temperature for another 30 minutes. Add 10 μL/well of the test compound diluted with assay buffer B (HBSS, 20 mM HEPES, 0.1% BSA), and use FDSS uCELL (Hamamatsu Photonics) to measure the fluorescence value every 1 second for 1 minute, and then every 2 seconds for […]. It was measured for 1 minute and 40 seconds. The amount of fluorescence value when DMSO is added instead of the test compound is defined as 0%, and the amount of fluorescence value when orexin A (human) (Peptide Institute) with a final concentration of 10 nM is added is defined as 100%. The activity (%) of the test compound was calculated.
row,"OX2R agonist activity (3 μM, %) [%]",Structure (SMILES)
1,102,"Cc1cnc([C@@H]2CC(N3C[C@@H](NS(=O)(=O)C4CC4)C(F)(F)C3)=NO2)c(-c2c(F)cccc2F)c1 [Example 33, N-[(3R)-1-{(5S)-5-[3-(2,6-difluorophenyl)-5-methylpyridin-2-yl]-4,5-dihydro-1,2-oxazol-3-yl}-4,4-difluoropyrrolidin-3-yl]cyclopropanesulfonamide]"
2,105,"CCS(=O)(=O)N[C@@H]1CN(C2=NOC(c3ncc(F)cc3-c3c(F)cc(F)cc3F)C2)CC1(F)F (stereo partly drawn) [Example 34, N-[(3R)-4,4-difluoro-1-{5-[5-fluoro-3-(2,4,6-trifluorophenyl)pyridin-2-yl]-4,5-dihydro-1,2-oxazol-3-yl}pyrrolidin-3-yl]ethanesulfonamide]"
3,92,"CN(C)S(=O)(=O)N[C@H]1CCN(C2=NOC(c3ncccc3-c3c(F)cc(F)cc3F)C2)C1 (stereo partly drawn) [Example 35, N,N-dimethyl-N′-[(3S)-1-{5-[3-(2,4,6-trifluorophenyl)pyridin-2-yl]-4,5-dihydro-1,2-oxazol-3-yl}pyrrolidin-3-yl]sulfuric diamide]"
4,103,"O=S(=O)(CF)N[C@H]1CCN(C2=NOC(c3ncc(F)cc3-c3c(F)cc(F)cc3F)C2)C1 (stereo partly drawn) [Example 36, 1-fluoro-N-[(3S)-1-{5-[5-fluoro-3-(2,4,6-trifluorophenyl)pyridin-2-yl]-4,5-dihydro-1,2-oxazol-3-yl}pyrrolidin-3-yl]methanesulfonamide]"
5,103,"Cc1cnc([C@@H]2CC(N3CC[C@H](NS(=O)(=O)C(F)F)C3)=NO2)c(-c2c(F)cccc2F)c1 [Example 37, N-[(3S)-1-{(5S)-5-[3-(2,6-difluorophenyl)-5-methylpyridin-2-yl]-4,5-dihydro-1,2-oxazol-3-yl}pyrrolidin-3-yl]-1,1-difluoromethanesulfonamide]"
6,104,"Cc1cnc([C@@H]2CC(N3CC[C@H](NS(=O)(=O)CF)C3)=NO2)c(-c2c(F)cccc2F)c1 [Example 38, N-[(3S)-1-{(5S)-5-[3-(2,6-difluorophenyl)-5-methylpyridin-2-yl]-4,5-dihydro-1,2-oxazol-3-yl}pyrrolidin-3-yl]-1-fluoromethanesulfonamide]"
7,97,"CS(=O)(=O)N[C@@H]1CN(C2=NOC(c3ncc(Cl)cc3-c3c(F)cc(F)cc3F)C2)CC1(F)F (stereo partly drawn) [Example 39, N-[(3R)-1-{5-[5-chloro-3-(2,4,6-trifluorophenyl)pyridin-2-yl]-4,5-dihydro-1,2-oxazol-3-yl}-4,4-difluoropyrrolidin-3-yl]methanesulfonamide]"
8,103,"CS(=O)(=O)N[C@@H]1CN(C2=NOC(c3ncc(Br)cc3-c3c(F)cc(F)cc3F)C2)CC1(F)F (stereo partly drawn) [Example 40, N-[(3R)-1-{5-[5-bromo-3-(2,4,6-trifluorophenyl)pyridin-2-yl]-4,5-dihydro-1,2-oxazol-3-yl}-4,4-difluoropyrrolidin-3-yl]methanesulfonamide]"
9,107,"CS(=O)(=O)N[C@@H]1CN(C2=NOC(c3ncc(C(F)F)cc3-c3c(F)cc(F)cc3F)C2)CC1(F)F (stereo partly drawn) [Example 41, N-[(3R)-1-{5-[5-(difluoromethyl)-3-(2,4,6-trifluorophenyl)pyridin-2-yl]-4,5-dihydro-1,2-oxazol-3-yl}-4,4-difluoropyrrolidin-3-yl]methanesulfonamide]"
10,100,"CCS(=O)(=O)N[C@@H]1CN(C2=NOC(c3ncc(Cl)cc3-c3c(F)cc(F)cc3F)C2)CC1(F)F (stereo partly drawn) [Example 42, N-[(3R)-1-{5-[5-chloro-3-(2,4,6-trifluorophenyl)pyridin-2-yl]-4,5-dihydro-1,2-oxazol-3-yl}-4,4-difluoropyrrolidin-3-yl]ethanesulfonamide]"
11,103,"CCS(=O)(=O)N[C@@H]1CN(C2=NO[C@H](c3ncc(Br)cc3-c3c(F)cc(F)cc3F)C2)CC1(F)F [Example 43, N-[(3R)-1-{5-[5-bromo-3-(2,4,6-trifluorophenyl)pyridin-2-yl]-4,5-dihydro-1,2-oxazol-3-yl}-4,4-difluoropyrrolidin-3-yl]ethanesulfonamide]"
